Laboratory results: ChEMBL document CHEMBL1201862, “PubChem BioAssay data set” (2004)
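All cell lines were grown in 96-well plates and treated with compound for 48 hours. GI50 marks 50% less growth.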 The source made the active and inactive calls. No stated cut-off is given here; in the data, active = GI50 up to about 1.1 µM and inactive = higher.

Key:
Assay in all cases: growth of human tumour cells (NCI), 48 h
[1] = tested on: MDA-MB-435
[2] = tested on: HT-29
[3] = tested on: SNB-75
[4] = tested on: OVCAR-5
[5] = tested on: NCI/ADR-RES
[6] = tested on: A549
[7] = tested on: SK-MEL-2
[8] = tested on: HOP-62
[9] = tested on: CAKI-1
[10] = tested on: NCI-H460
[11] = tested on: NCI-H226
[12] = tested on: MOLT-4
[13] = tested on: KM12
[14] = tested on: OVCAR-4
[15] = tested on: UACC-62
[16] = tested on: LOX IMVI
[17] = tested on: Hs-578T
[18] = tested on: HOP-92

Measured: GI50

COc1cc(/C=C2\C[C@H]3[C@@H]4CCc5cc(O)ccc5[C@H]4CC[C@]3(C)C2=O)cc(OC)c1OC
inactive: [1] 16.9 µM | [2] 12.5 µM | [3] 12.2 µM | [4] 17.7 µM | [5] 16.8 µM | [6] 15.6 µM | [7] 14 µM | [8] 12.4 µM | [9] 11.4 µM | [10] 45.2 µM | [11] 6.05 µM | [12] 11.1 µM | [13] 14 µM | [14] 15.8 µM | [15] 22.7 µM | [16] 15.5 µM

CC12C(=O)OC(=O)C1(C)C1C=CC2O1 (stereo not drawn)
inactive: [1] > 100 µM | [2] > 100 µM | [3] 14.9 µM | [4] > 100 µM | [5] > 100 µM | [6] > 100 µM | [7] > 100 µM | [9] 54.7 µM | [10] > 100 µM | [11] 21.7 µM | [12] > 100 µM | [13] > 100 µM | [15] > 100 µM | [17] 29.1 µM | [16] > 100 µM

COc1ccc(NC(C)=O)cc1N1C(=O)/C(=C\c2cc(OC)c(OC)c(OC)c2)S(=O)(=O)C1c1ccccc1 (stereo not drawn)
inactive: [1] 39.7 µM | [2] 47.2 µM | [3] 39 µM | [4] 23.5 µM | [18] 51.3 µM | [5] 73.6 µM | [6] 61.7 µM | [7] > 100 µM | [8] 78.2 µM | [9] > 100 µM | [10] 58.9 µM | [11] 26.5 µM | [12] 22 µM | [13] 46.7 µM | [14] 31.6 µM | [15] 65.6 µM | [16] 68.1 µM

CC1(C)CCSC(/C=C/c2ccccc2)=N1
inactive: [1] 17.9 µM | [2] 18.4 µM | [4] 20.2 µM | [18] 13.4 µM | [5] 14.7 µM | [6] 25.2 µM | [7] 14.6 µM | [8] 16.4 µM | [9] 14.8 µM | [10] 12.1 µM | [12] 19 µM | [13] 12 µM | [14] 16 µM | [17] 43.4 µM | [16] 13.7 µM
